According to the CheMixHub viscosity set:
“And” between values parts separate entries of the source, which are not always exact repeats. Identical values can stand only once. ± gives the uncertainty stated by the source.

How the values were obtained:
[1] = xn = mol fraction of the nth substance listed

[Br-].[Br-].[Br-].[Sb+3] + Nc1ccccc1
[1], 323.15 K, 101 kPa
Conditions | viscosity [mPa·s]
x1 = 0.1 | 6.997 ± 0.67
x1 = 0.25 | 182.4 ± 13
x1 = 0.333 | 2175 ± 60
x1 = 0.4 | 7012 ± 200
x1 = 0.45 | 20680 ± 770
x1 = 0.47 | 23030 ± 900
x1 = 0.49 | 24420 ± 980
x1 = 0.5 | 24690 ± 990
x1 = 0.51 | 20780 ± 780
x1 = 0.53 | 16040 ± 530
x1 = 0.55 | 7888 ± 200
x1 = 0.6 | 3022 ± 75
x1 = 0.75 | 272.9 ± 6.2

O=Cc1ccco1
100 kPa
Conditions | viscosity [mPa·s]
293.15 K | 1.62 ± 0.65
298.15 K | 1.48 ± 0.59
303.15 K | 1.36 ± 0.54
308.15 K | 1.26 ± 0.5
313.15 K | 1.17 ± 0.47
318.15 K | 1.09 ± 0.44
323.15 K | 1.02 ± 0.41

CCCC[NH2+]CCO.O=C([O-])c1ccccc1O + O
[1], 100 kPa, x2 = 0.142
Conditions | viscosity [mPa·s]
298 K | 876 ± 43
303 K | 582.8 ± 27
313 K | 275.5 ± 11
323 K | 145 ± 5.4

ClC1CCCCC1 + CC(C)CO
viscosity [mPa·s], [1], 101.33 kPa
Conditions | x1 = 0.1018 | x1 = 0.2015 | x1 = 0.3066 | x1 = 0.4073 | x1 = 0.5034 | x1 = 0.5996 | x1 = 0.7053 | x1 = 0.8003 | x1 = 0.8949
298.15 K | 2.771 ± 0.022 | 2.342 ± 0.019 | 2.035 ± 0.017 | 1.835 ± 0.015 | 1.687 ± 0.014 | 1.597 ± 0.014 | 1.525 ± 0.013 | 1.5 ± 0.013 | 1.5 ± 0.013
313.15 K | 1.784 ± 0.014 | 1.555 ± 0.013 | 1.393 ± 0.012 | 1.284 ± 0.011 | 1.223 ± 0.011 | 1.181 ± 0.01 | 1.146 ± 0.01 | 1.132 ± 0.01 | 1.144 ± 0.01

N + O
[1]
Conditions | viscosity [mPa·s]
293.15 K, 100 kPa, x1 = 0.1035 | 1.166 ± 0.17
293.15 K, 101 kPa, x1 = 0.0111 | 1.025 ± 0.042
303 K, 100 kPa, x1 = 0.053 | 0.86 ± 0.04
303 K, 100 kPa, x1 = 0.105 | 0.92 ± 0.04
303 K, 100 kPa, x1 = 0.157 | 0.97 ± 0.04
303 K, 100 kPa, x1 = 0.209 | 1 ± 0.04
303.15 K, 100 kPa, x1 = 0.05336 | 0.838 ± 0.13
303.15 K, 100 kPa, x1 = 0.1035 | 0.994 ± 0.15
313 K, 100 kPa, x1 = 0.053 | 0.69 ± 0.03
313 K, 100 kPa, x1 = 0.105 | 0.72 ± 0.03
313 K, 100 kPa, x1 = 0.157 | 0.75 ± 0.03
313 K, 100 kPa, x1 = 0.209 | 0.79 ± 0.03
313.15 K, 100 kPa, x1 = 0.05336 | 0.666 ± 0.1
313.15 K, 100 kPa, x1 = 0.1035 | 0.833 ± 0.12

O=S(=O)([N-]S(=O)(=O)C(F)(F)F)C(F)(F)F.On1cc[n+](O)c1 + CCCO
[1], 100 kPa
Conditions | viscosity [mPa·s]
293.15 K, x1 = 0.3992 | 31.05 ± 2.5
293.15 K, x1 = 0.5999 | 65.75 ± 5.3
303.15 K, x1 = 0.7996 | 77.95 ± 6.3
313.15 K, x1 = 0.4985 | 20.85 ± 1.7

C[N+](=O)[O-]
Conditions | viscosity
293.15 K, 101 kPa | 0.648 ± 0.007 mPa·s
293.15 K, 101.33 kPa | 0.644 ± 0.005 mPa·s and 0.644 ± 0.007 mPa·s and 0.646 ± 0.006 mPa·s
298 K, 101.3 kPa | 0.627 ± 0.008 mPa·s
298.15 K, 101.33 kPa | 0.6215 ± 0.0083 mPa·s and 0.615 ± 0.025 mPa·s
298.45 K, 101 kPa | 0.619 ± 0.006 mPa·s
303.15 K, 101.33 kPa | 0.581 ± 0.006 mPa·s and 0.581 ± 0.024 mPa·s
313.15 K, 101.33 kPa | 0.522 ± 0.005 mPa·s and 0.522 ± 0.021 mPa·s
318 K, 101.3 kPa | 0.5187 ± 0.02 mPa·s
318.15 K, 101 kPa | 0.5208 ± 0.014 mPa·s and 0.51 ± 0.006 mPa·s and 0.505 ± 0.005 mPa·s
323.15 K, 101 kPa | 0.486 ± 0.006 mPa·s
323.15 K, 101.33 kPa | 0.4845 ± 0.0066 mPa·s

CCCCC(CC)COP(=O)(O)OCC(CC)CCCC (stereo unspecified) + CO
[1], 303.15 K, 101 kPa
Conditions | viscosity [mPa·s]
x1 = 0.0413 | 1.349 ± 0.033
x1 = 0.0751 | 2.075 ± 0.049
x1 = 0.1088 | 2.893 ± 0.067
x1 = 0.1723 | 4.725 ± 0.11
x1 = 0.2681 | 7.099 ± 0.15
x1 = 0.3639 | 9.284 ± 0.2
x1 = 0.4602 | 11.18 ± 0.24
x1 = 0.6161 | 13.99 ± 0.3
x1 = 0.7023 | 15.23 ± 0.33
x1 = 0.8292 | 17.17 ± 0.39
x1 = 0.928 | 18.67 ± 0.43

CC(=O)c1ccc(C)cc1 + CNC(C)=O
[1], 308.15 K, 101 kPa
Conditions | viscosity [mPa·s]
x1 = 0.0617 | 3.091 ± 0.035
x1 = 0.1321 | 2.867 ± 0.033
x1 = 0.2004 | 2.666 ± 0.031
x1 = 0.2836 | 2.469 ± 0.029
x1 = 0.3629 | 2.286 ± 0.027
x1 = 0.4632 | 2.08 ± 0.025
x1 = 0.5582 | 1.927 ± 0.024
x1 = 0.689 | 1.722 ± 0.022
x1 = 0.8305 | 1.588 ± 0.021

Cc1cccc(O)c1 + Cc1ccccc1N
[1], 298.15 K, 101 kPa
Conditions | viscosity [mPa·s]
x1 = 0.33 | 8.06 ± 0.22
x1 = 0.496 | 11.21 ± 0.31
x1 = 0.662 | 13.84 ± 0.39
x1 = 0.751 | 13.76 ± 0.38

C[N+](=O)[O-] + CCO
viscosity [mPa·s], [1]
Conditions | 293.15 K | 298.15 K | 303.15 K | 313.15 K
101 kPa, x1 = 0.1074 | – | 0.9963 ± 0.1 | – | –
101 kPa, x1 = 0.2135 | – | 0.9148 ± 0.092 | – | –
101 kPa, x1 = 0.3174 | – | 0.84 ± 0.085 | – | –
101 kPa, x1 = 0.4199 | – | 0.777 ± 0.078 | – | –
101 kPa, x1 = 0.5202 | – | 0.7236 ± 0.073 | – | –
101 kPa, x1 = 0.6192 | – | 0.6847 ± 0.069 | – | –
101 kPa, x1 = 0.7167 | – | 0.6557 ± 0.066 | – | –
101 kPa, x1 = 0.8126 | – | 0.6418 ± 0.065 | – | –
101 kPa, x1 = 0.9071 | – | 0.637 ± 0.064 | – | –
101.33 kPa, x2 = 0.0501 | 0.625 ± 0.006 | – | 0.553 ± 0.005 | 0.501 ± 0.005
101.33 kPa, x2 = 0.1001 | 0.609 ± 0.006 | – | 0.538 ± 0.005 | 0.486 ± 0.005
101.33 kPa, x2 = 0.15 | 0.602 ± 0.006 | – | 0.53 ± 0.005 | 0.477 ± 0.005
101.33 kPa, x2 = 0.2 | 0.601 ± 0.006 | – | 0.527 ± 0.005 | 0.472 ± 0.005
101.33 kPa, x2 = 0.2501 | 0.604 ± 0.006 | – | 0.527 ± 0.005 | 0.471 ± 0.005
101.33 kPa, x2 = 0.3001 | 0.612 ± 0.006 | – | 0.531 ± 0.005 | 0.472 ± 0.005
101.33 kPa, x2 = 0.3502 | 0.622 ± 0.006 | – | 0.538 ± 0.005 | 0.476 ± 0.005
101.33 kPa, x2 = 0.4008 | 0.636 ± 0.006 | – | 0.547 ± 0.005 | 0.482 ± 0.005
101.33 kPa, x2 = 0.4501 | 0.653 ± 0.006 | – | 0.561 ± 0.005 | 0.491 ± 0.005
101.33 kPa, x2 = 0.5001 | 0.672 ± 0.006 | – | 0.577 ± 0.005 | 0.502 ± 0.005
101.33 kPa, x2 = 0.55 | 0.695 ± 0.006 | – | 0.594 ± 0.006 | 0.516 ± 0.005
101.33 kPa, x2 = 0.6 | 0.72 ± 0.007 | – | 0.612 ± 0.006 | 0.531 ± 0.005
101.33 kPa, x2 = 0.65 | 0.75 ± 0.007 | – | 0.633 ± 0.006 | 0.547 ± 0.005
101.33 kPa, x2 = 0.7 | 0.785 ± 0.007 | – | 0.665 ± 0.006 | 0.569 ± 0.005
101.33 kPa, x2 = 0.75 | 0.825 ± 0.008 | – | 0.698 ± 0.007 | 0.595 ± 0.006
101.33 kPa, x2 = 0.8 | 0.872 ± 0.008 | – | 0.732 ± 0.007 | 0.625 ± 0.006
101.33 kPa, x2 = 0.85 | 0.936 ± 0.009 | – | 0.782 ± 0.007 | 0.662 ± 0.006
101.33 kPa, x2 = 0.9 | 1.006 ± 0.009 | – | 0.835 ± 0.008 | 0.705 ± 0.007
101.33 kPa, x2 = 0.95 | 1.086 ± 0.01 | – | 0.901 ± 0.008 | 0.759 ± 0.007
